{"source": "patent US12479858B2", "about": "“Macrocyclic compounds as sting agonists and methods and uses thereof” (Lupin Limited, priority 2019, dated 2025)", "key": {"Human STING": {"target": "T1, Human STING (Homo sapiens, UniProt Q86WV6, G230A/H232R/R293Q/R71H)", "T1 construct": "using human THP1-Blue™ ISG SEAP based reporter cell line (Invivogen); host or cells: THP1-Blue ISG cells (human monocytic THP-1 derived SEAP reporter line)", "T1 sequence (Q86WV6 whole entry R71H/G230A/H232R/R293Q)": "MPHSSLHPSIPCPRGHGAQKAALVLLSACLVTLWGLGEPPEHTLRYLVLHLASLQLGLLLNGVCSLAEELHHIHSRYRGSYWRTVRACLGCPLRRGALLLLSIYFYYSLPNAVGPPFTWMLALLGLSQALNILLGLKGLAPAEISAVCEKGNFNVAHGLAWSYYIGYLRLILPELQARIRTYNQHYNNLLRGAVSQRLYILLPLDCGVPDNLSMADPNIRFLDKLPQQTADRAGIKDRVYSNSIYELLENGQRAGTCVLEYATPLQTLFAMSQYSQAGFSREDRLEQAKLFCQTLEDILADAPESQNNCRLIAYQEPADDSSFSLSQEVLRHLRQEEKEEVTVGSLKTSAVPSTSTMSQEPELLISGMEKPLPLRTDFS", "experiment": "Stimulation of human STING signaling in THP1 cell line (THP1-Blue ISG SEAP reporter)", "assay_type": "cell-based", "conditions": "THP1-Blue ISG cells, SEAP activity, 18-20 hours", "method": "Biological Assay—Stimulation of Human STING Signaling in THP1 Cell Line\nCompounds were tested for their STING activation potential using human THP1-Blue™ ISG SEAP based reporter cell line (Invivogen). Briefly, THP1-Blue ISG cells (100,000 cells/well) in 96 well plate were treated with varying concentrations of test and reference compounds and incubated at 37° C. with 5% CO2 for 18-20 hours. The control untreated cells were also set up. Post incubation, the cell supernatant was tested for SEAP (Secreted Embryonic Alkaline Phosphatase) activity using the QuantiBlue™ substrate reagent (Invivogen). The formation of blue coloured product was quantified by measuring absorbance at wavelength of 620 nm using PheraStar/Tecan reader. The average of duplicate readouts for each data point was plotted in GraphPad prism 6 against the concentration of test or reference compound to calculate EC50 value. The fold of SEAP induction or increase in luminescence at different data points was estimated against the un-stimulated cell control set."}, "[1]": {"experiment": "Plasma and tumor compound concentrations in CT26 tumor-bearing mice (LC-MS/MS)", "assay_type": "in vivo, BALB/c mice", "conditions": "0.375 mg/kg single i.v.; for concentration at 3.5 h: 3.5 h (Table 4); for concentration at 8 h: 8 h (Table 4); for concentration at 12 h: 12 h (Table 4)", "method": "(§1) Pharmacokinetic and Pharmacodynamic Profiling and Estimation of Immune Cell Infiltration in Tumors Following Treatment with Compounds 2, 6, 8, 12 and 14\n(§2) Serum and tumor cytokine levels and corresponding compound concentrations in mouse plasma were determined following single-dose intravenous administration in CT26 (murine colorectal carcinoma) tumor-bearing mice. Briefly, naïve BALB/c mice in the age group of 6-8 weeks were inoculated with 0.1 million CT-26 cells/animal in phosphate buffered saline (PBS), subcutaneously. […] Blood and tumor samples were harvested at various time points up to 24 h post-dose. Tumor samples were homogenized and prepared for cytokine estimation (ELISA) and compound concentration were determined by LC-MS/MS. Serum aliquots and tumor samples were snap-frozen and stored at −80° C. till further analysis. Serum and tumor samples were evaluated for Interferon beta (IFNβ), interleukin-6 (IL-6) and tumor necrosis factor alpha (TNFα) by enzyme linked immunosorbent assay (ELISA) using kits from R & D systems (Quantikine mouse IL-6 and TNFα kits) and PBL biosciences (Verikine mouse IFNβ kit).\nBioanalysis of plasma and tumor samples: Plasma and tumor concentrations of test compounds were determined by LC-MS/MS method. Tumor samples were homogenized utilizing a bead-based homogenizer. Plasma samples and tumor homogenates were extracted using protein precipitation method with organic solution containing respective internal standards. Plasma and tumor concentrations were determined against respective calibration curve. Table 3 indicates the concentration of Compound 2 in plasma and tumor at different administered doses. Table 4 indicates the concentration of Compounds 6, 8, 12, and 14 in plasma and tumor at different administered doses. Table 5 indicates cytokine levels for Compound 2 in serum and tumor at different doses. Table 6 indicates cytokine levels for Compounds 6, 8, 12 and 14 in serum and tumor at 0.375 mpk."}, "[2]": {"tested_on": "Interferon beta (IFNβ), interleukin-6 (IL-6) and tumor necrosis factor alpha (TNFα)", "experiment": "Serum and tumor cytokine levels in CT26 tumor-bearing mice (ELISA)", "assay_type": "in vivo, BALB/c mice", "conditions": "0.375 mg/kg single i.v.", "method": "as §1, §2\nCytokine analysis from mouse serum samples: For IL-6 and TNFα estimation, 50 μL of test samples or internal standard or control were applied to wells in duplicates and incubated for 2 h at room temperature, followed by aspiration and washing four times with 400 μL of wash buffer. 100 μL of mouse IL-6 or TNFα conjugate solution was added and incubated further for 2 h at room temperature and followed later by 4 wash cycles. 100 μL of substrate solution was added to each well with addition of stop solution after 30 min. Optical density was measured at 450 nm averaged and was used for further calculations following subtraction of respective blank controls. Cytokine concentrations were determined by interpolating the optical density of samples into the reference standard curve utilizing four parameter logistic (4-PL) curve-fit. Cytokine concentrations were normalized with their respective dilution factors and represented in pg/mL. For IFNβ estimation, 100 μL test sample or internal standard or controls were applied to the wells in duplicates and incubated for 1 h at room temperature followed by three washes and addition of the anti-mouse IFNβ antibody solution with further 1 h incubation. This was followed by addition of horseradish peroxidase (HRP) solution and three washes, later addition of TMB substrate and reading the optical density at 450 nm. Optical densities were blank-subtracted and interpolated to the reference standard utilizing the four parameter logistic (4-PL) curve-fit. Cytokine concentrations were normalized with their respective dilution factors and represented in pg/mL. Tables 4 and 5 indicate cytokine levels for compounds 2, 6, 8, 12, and 14 in serum and tumor at different administered doses.\nCytokine analysis from tumor samples: Tumor samples were homogenized in a bead-based homogenizer and lysates were prepared with buffer supplemented with 1% Triton X-100 and protease inhibitors. Cytokine levels were estimated by ELISA and expressed as pg/g tumor."}, "[3]": {"conditions": "BALB/c, mouse, plasma, intravenous, read-out: Plasma Conc."}, "[4]": {"conditions": "BALB/c, mouse, tumor, intravenous, read-out: Tumor Conc."}}, "note": "Counter-ions that a name gives are not always drawn. Like-named read-outs stand apart in the source and are kept apart here.", "data": [{"smiles": "CCn1nc(C)cc1C(=O)Nc1nc2cc(C(N)=O)cc3c2n1C/C=C/Cn1c(NC(=O)c2cc(C)nn2CC)nc2cc(C(=O)N[C@H]4CC[C@H](C(=O)O)CC4)cc(c21)OC[C@@H](N1C2CCC1COC2)CO3", "note": "[Compound 14, (1S,4R)-4-((8S,E)-8-(3-oxa-8-azabicyclo[3.2.1]octan-8-yl)-12-carbamoyl-1,15-bis(1-ethyl-3-methyl-1H-pyrazole-5-carboxamido)-8,9,16,19-tetrahydro-7H-6,10-dioxa-2,14,15a,19a-tetraazacyclopentadeca[3,2,1-cd:8,9,10-c′d′]diindene-4-carboxamido)cyclohexane-1-carboxylic acid sodium salt]", "values": [{"measurement": "EC50", "setting": "Human STING", "result": "1 to 10", "unit": "nM"}, {"measurement": "Plasma Conc.", "setting": "[1]; 24 h (Table 4)", "result": "BLQ"}, {"measurement": "concentration at 3.5 h", "setting": "[1]; [3]", "result": "450 ± 70", "unit": "nM"}, {"measurement": "concentration at 8 h", "setting": "[1]; [3]", "result": "90 ± 10", "unit": "nM"}, {"measurement": "concentration at 12 h", "setting": "[1]; [3]", "result": "70 ± 60", "unit": "nM"}, {"measurement": "concentration at 3.5 h", "setting": "[1]; [4]", "result": "170 ± 20", "unit": "nM"}, {"measurement": "concentration at 8 h", "setting": "[1]; [4]", "result": "130 ± 20", "unit": "nM"}, {"measurement": "concentration at 12 h", "setting": "[1]; [4]", "result": "160 ± 60", "unit": "nM"}, {"measurement": "concentration at 24 h", "setting": "[1]; BALB/c, mouse, tumor, intravenous, 24 h (Table 4), read-out: Tumor Conc.", "result": "180 ± 60", "unit": "nM"}, {"measurement": "Serum IFNβ", "setting": "[2]; 3.5 h (Table 6)", "result": "768 ± 330.8", "unit": "pg/mL"}, {"measurement": "Tumor IFNβ", "setting": "[2]; 3.5 h (Table 6)", "result": "2433 ± 653.8", "unit": "pg/g tumor"}, {"measurement": "Serum IFNβ", "setting": "[2]; 8 h (Table 6)", "result": "415 ± 8.7", "unit": "pg/mL"}, {"measurement": "Tumor IFNβ", "setting": "[2]; 8 h (Table 6)", "result": "2137 ± 261.8", "unit": "pg/g tumor"}, {"measurement": "Serum IFNβ", "setting": "[2]; 12 h (Table 6)", "result": "5 ± 5", "unit": "pg/mL"}, {"measurement": "Tumor IFNβ", "setting": "[2]; 12 h (Table 6)", "result": "752 ± 126.6", "unit": "pg/g tumor"}, {"measurement": "Serum IFNβ", "setting": "[2]; 24 h (Table 6)", "result": "BLQ"}, {"measurement": "Tumor IFNβ", "setting": "[2]; 24 h (Table 6)", "result": "380 ± 239", "unit": "pg/g tumor"}]}]}
